Measurements published in patent US20230139883A1, “Peptides for Inducing Differentiation” (Shimadzu Corporation, priority 2020, published 2023).

What was measured:
FGFR1 = test: Phage display selection against FGFR1 with Miseq analysis of the bound phages; format: binding; conditions: for 1 nM Num. of reads: phage library after panning Round 5, bound to 1 nM FGFR1; for 10 nM Num. of reads: phage library after panning Round 5, bound to 10 nM FGFR1; for 100 nM Num. of reads: phage library after panning Round 5, bound to 100 nM FGFR1; for 1 nM Ranking / 10 nM Ranking / 100 nM Ranking: rank by number of reads; for 1 nM Ranking: 1 nM FGFR1; for 10 nM Ranking: 10 nM FGFR1; for 100 nM Ranking: 100 nM FGFR1
Procedure: The collected phage library was mixed with 100 nM of FGFR3 solution and allowed to react overnight at 4° C. (Table 5: Panning Round 1). After the reaction, the binding phages were captured by magnetic beads modified with protein A, and washed three times with PBS-T, followed by eluting the bound phages with Gly-HCl (pH 2.0). After neutralizing with 2M Tris, the phages were infected to E. coli. After 4 hours of incubation, helper phages were added, and the E. coli were allowed to produce phages overnight. Next, phage solution was prepared from the culture supernatant. The prepared phage solution was mixed with FGFR3 solution and allowed to react overnight at 4° C. (Table 5: Panning Round 2). After the reaction, the bound phages were eluted. Phage solution prepared in the same way was mixed with FGFR3 solution and allowed to react at 4° C. for 1 hour (Table 5: Panning Round 3). After the reaction, the bound phages were eluted. This operation was repeated two more times, and after Panning Round 5, the bound phages were eluted. Note that as the rounds proceeded, the number of washes with PBS-T was increased. (Table 5). The titer of the Output phage in each round was also determined. The titer of phage was determined from the number of colonies obtained by incubating the E. coli TG1 strain contacted with the phage at 37° C. overnight. As shown in FIG. 3<Input phage (Round 5)>, the eluted phage library after panning was subjected to Human IgG Fc-immobilized plate, and negative selection was performed by collecting unbound phages. The phage library was then acted to FGFR1 prepared to concentrations of 100 nM, 10 nM, and 1 nM. Bound phages were then collected. The phagemid DNA of the collected phages was extracted, samples were prepared according to Illumina's protocol for Miseq, and a comprehensive analysis of the phagemid DNA was performed. Among the sequences obtained, 23 sequences with high incidence rates were selected (Table 6).

FGFR3 = test: Phage display selection against FGFR3 with Miseq analysis of the bound phages; format: binding; conditions: for 1 nM Num. of reads: phage library after panning Round 4, bound to 1 nM FGFR3; for 10 nM Num. of reads: phage library after panning Round 4, bound to 10 nM FGFR3; for 100 nM Num. of reads: phage library after panning Round 4, bound to 100 nM FGFR3; for 1 nM Ranking / 10 nM Ranking / 100 nM Ranking: rank by number of reads; for 1 nM Ranking: 1 nM FGFR3; for 10 nM Ranking: 10 nM FGFR3; for 100 nM Ranking: 100 nM FGFR3
Procedure: The collected phage library was mixed with 100 nM of FGFR3 solution and allowed to react overnight at 4° C. (Table 9: Panning Round 1). After the reaction, the binding phages were captured by magnetic beads modified with protein A, and washed three times with PBS-T, followed by eluting the bound phages with Gly-HCl (pH 2.0). After neutralizing with 2M Tris, the pages were infected to E. coli (TG1 strain). After 4 hours of incubation, helper phages were added, and the E. coli (TG1 strain) were allowed to produce phages overnight. Next, phage solution was prepared from the culture supernatant. The prepared phage solution was mixed with FGFR3 solution and allowed to react overnight at 4° C. (Table 9: Panning Round 2). After the reaction, the bound phages were eluted. Phage solution prepared in the same way was mixed with FGFR3 solution and allowed to react at 4° C. for 1 hour (Table 9: Panning Round 3). After the reaction, the bound phages were eluted. This operation was further repeated, and after Panning Round 4, the bound phages were eluted. Note that as the rounds proceeded, the number of washes with PBS-T was increased. (Table 9). The titer of the Output phage in each round was also determined. The titer of phage was determined from the number of colonies obtained by incubating the E. coli TG1 strain contacted with the phage at 37° C. overnight. The phage library eluted after panning of Example 7 (Table 9: Input phage (Round 4)) was subjected to Human IgG Fc-immobilized plate, and negative selection was performed by collecting unbound phages. The phage library was then acted to FGFR3 prepared to concentrations of 100 nM, 10 nM, and 1 nM. Bound phages were then collected. The genomic DNA of the collected phages was extracted, samples were prepared according to Illumina's protocol for Miseq, and a comprehensive analysis of the phage genomic DNA was performed. Among the sequences obtained, 20 sequences high incidence rates were selected (Table 11). The yeast cells acquired in the screening of Example 8 were seeded onto SDCAA agar plates and cultured. Fourteen single colonies formed on the agar plates were randomly selected, and for each clone, the peptide DNA sequence incorporated into the yeast expression plasmid was analyzed using the Sanger method (Table 12).

| Sequence | 1 nM Num. of reads (FGFR1) | 10 nM Num. of reads (FGFR1) | 100 nM Num. of reads (FGFR1) | 1 nM Ranking (FGFR1) | 10 nM Ranking (FGFR1) | 100 nM Ranking (FGFR1) | 1 nM Num. of reads (FGFR3) | 10 nM Num. of reads (FGFR3) | 100 nM Num. of reads (FGFR3) | 1 nM Ranking (FGFR3) | 10 nM Ranking (FGFR3) | 100 nM Ranking (FGFR3) |
| --- | --- | --- | --- | --- | --- | --- | --- | --- | --- | --- | --- | --- |
| CAAELAALDAELAALEGARLGKMSKVGKLIKLKEKLQNLKMAC [100n182] | 1428 | 1468 | 937 | 10 | 12 | 13 | – | – | – | – | – | – |
| CAAELAALEAELAALEGADAFTLGSAGKLMMLKEKLNHLKHAC [100n1348] | 349 | 473 | 346 | 27 | 30 | 30 | – | – | – | – | – | – |
| CAAELAALEAELAALEGAKKAEEGQKGKLYRLKNKLHYLKSAC [100n423] | 561 | 867 | 439 | 21 | 19 | 26 | – | – | – | – | – | – |
| CAAELAALEAELAALEGASTPTLESRGKLGSLIFKLRQLKVAC [F3-100n50] | – | – | – | – | – | – | 1149 | 820 | 1121 | 14 | 15 | 14 |
| CAAELAALEAELAALEGAVGDKRKSKGKLMMLKQKLELLKGAC [100n85] | 6769 | 9230 | 7482 | 2 | 2 | 2 | – | – | – | – | – | – |
| CAAELAALEAELAALEGAWVEQVNRRGKLDGLKMKLQRLKLAC [100n51] | 704 | 1000 | 649 | 19 | 16 | 16 | – | – | – | – | – | – |
| CAAELAALEAELAALEGDCLAGGCSFGKLLNLKQKLIRLKRAC [100n108] | 873 | 1155 | 464 | 13 | 14 | 22 | – | – | – | – | – | – |
| CAAELAALEAELAALEGEGMSTLNRQGKLSVLKSKLLWLKHAC [F3-100n228] | – | – | – | – | – | – | 2006 | 1447 | 1753 | 5 | 6 | 7 |
| CAAELAALEAELAALEGENVYTLGGLGKLMLLKYKLRELKGAC [F3-100n458] | – | – | – | – | – | – | 1304 | 789 | 1023 | 10 | 17 | 20 |
| CAAELAALEAELAALEGETNMTVLMTGKLLVLKHKLEHLKWAC [F3-100n386] | – | – | – | – | – | – | 1216 | 781 | 1028 | 13 | 18 | 19 |
| CAAELAALEAELAALEGFGGVVYSCEWQAVYLKYKLMRLKQAC [100n17] | 8443 | 10095 | 8500 | 1 | 1 | 1 | – | – | – | – | – | – |
| CAAELAALEAELAALEGGDEVPHVGGGKLKMLKYQLNNLKHAC [100n417] | 721 | 1010 | 762 | 18 | 15 | 14 | – | – | – | – | – | – |
| CAAELAALEAELAALEGGMATDHMNRGKLYRLKNKLHFLKIAC [100n781] | 352 | 262 | 228 | 26 | 48 | 40 | – | – | – | – | – | – |
| CAAELAALEAELAALEGGRFSGLQEKGKLYGLKNKLHYLKRAC [100n368] | 2077 | 2177 | 1695 | 8 | 9 | 11 | – | – | – | – | – | – |
| CAAELAALEAELAALEGINAVPMSGRGKLYSLKNKLHYLKNAC [100n12] | 273 | 267 | 258 | 30 | 46 | 34 | – | – | – | – | – | – |
| CAAELAALEAELAALEGLGGFFNLRTGKLDELKMKLQHLKQAC [100n84] | 795 | 854 | 563 | 15 | 20 | 19 | – | – | – | – | – | – |
| CAAELAALEAELAALEGMSNHTLGSIGKLMLLKDKLESLKEAC [100n1074] | 756 | 688 | 333 | 16 | 23 | 31 | – | – | – | – | – | – |
| CAAELAALEAELAALEGNTANDPTASGKLKYLKYKLSNLKHAC [100n606] | 872 | 894 | 609 | 14 | 18 | 18 | – | – | – | – | – | – |
| CAAELAALEAELAALEGPHPRHHHPHGKLKKLKRKLYKLKQAC [100n222] | 525 | 776 | 541 | 22 | 22 | 20 | – | – | – | – | – | – |
| CAAELAALEAELAALEGQTFMNPHRLGKLDKLKLKLVHLKRAC [100n8] | 4243 | 3717 | 1974 | 7 | 7 | 8 | – | – | – | – | – | – |
| CAAELAALEAELAALEGREPSGAMGSGKLKRLKYKLQNLKHAC [100n1793] | 493 | 493 | 395 | 23 | 29 | 29 | – | – | – | – | – | – |
| CAAELAALEAELAALEGSSMDHVAYTGKLRMLKFRLELLKGAC [100n1543] | 233 | 276 | 216 | 37 | 43 | 43 | – | – | – | – | – | – |
| CAAELAALEAELAALEGSVALGNKAGGKLRLLKLKLELLKDAC [100n1314] | 260 | 406 | 238 | 34 | 31 | 38 | – | – | – | – | – | – |
| CAAELAALEAELAALEGVGRLYHMASGKLDRLKGKLMVLKYAC [100n82] | 6561 | 7109 | 4896 | 3 | 4 | 5 | – | – | – | – | – | – |
| CAAELAALEAELAALEGVKELTLGTVGKLMSLKYKLWSLKQAC [100n83] | 4939 | 6581 | 3079 | 5 | 5 | 6 | – | – | – | – | – | – |
| CAAELAALEAELAALEGVPALVGQEGGKLVLLKWKLWRLKNAC [100n36] | 483 | 677 | 398 | 24 | 24 | 28 | – | – | – | – | – | – |
